Assay results: PubChem BioAssay AID1918949 (Molecular Pharmacology Branch, DTP, NCI, 2023)
pIC50: −log10 of the molar value.

Test system: K24384-001-R-PDC complex spheroid viability
Experiment: Anticancer human tumor K24384-001-R-PDC patient-derived pancreatic adenocarcinoma cell line growth inhibition
Details: for viability, T/C: stronger effect = lower value
How it was run: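 Complex spheroids of tumor cells with HUVEC and human MSCs, exposed to iadademstat combined with other agents. Each agent tested in half-log steps from near clinical Cmax (else 10 microM top), DMSO ≤0.25%.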

[1] = curve of first compound, second compound 0.1 µM
[2] = curve of first compound, second compound 0.316 µM
[3] = curve of first compound, second compound 1 µM
[4] = curve of first compound, second compound 3.16 µM
[5] = curve of first compound, second compound 10 µM
[6] = second compound 0.1 µM, first compound 0.0316 µM
[7] = second compound 0.1 µM, first compound 0.1 µM
[8] = second compound 0.1 µM, first compound 0.316 µM
[9] = second compound 0.1 µM, first compound 1 µM
[10] = second compound 0.316 µM, first compound 0.0316 µM
[11] = second compound 0.316 µM, first compound 0.1 µM
[12] = second compound 0.316 µM, first compound 0.316 µM
[13] = second compound 0.316 µM, first compound 1 µM
[14] = second compound 1 µM, first compound 0.0316 µM
[15] = second compound 1 µM, first compound 0.1 µM
[16] = second compound 1 µM, first compound 0.316 µM
[17] = second compound 1 µM, first compound 1 µM
[18] = second compound 3.16 µM, first compound 0.0316 µM
[19] = second compound 3.16 µM, first compound 0.1 µM
[20] = second compound 3.16 µM, first compound 0.316 µM
[21] = second compound 3.16 µM, first compound 1 µM
[22] = second compound 10 µM, first compound 0.0316 µM
[23] = second compound 10 µM, first compound 0.1 µM
[24] = second compound 10 µM, first compound 0.316 µM
[25] = second compound 10 µM, first compound 1 µM
[26] = second compound 0.1 µM, first compound 0.00949 µM
[27] = second compound 0.1 µM, first compound 0.03 µM
[28] = second compound 0.1 µM, first compound 0.0949 µM
[29] = second compound 0.1 µM, first compound 0.3 µM
[30] = second compound 0.1 µM, first compound 0.949 µM
[31] = second compound 0.1 µM, first compound 3 µM
[32] = second compound 0.316 µM, first compound 0.00949 µM
[33] = second compound 0.316 µM, first compound 0.03 µM
[34] = second compound 0.316 µM, first compound 0.0949 µM
[35] = second compound 0.316 µM, first compound 0.3 µM
[36] = second compound 0.316 µM, first compound 0.949 µM
[37] = second compound 0.316 µM, first compound 3 µM
[38] = second compound 1 µM, first compound 0.00949 µM
[39] = second compound 1 µM, first compound 0.03 µM
[40] = second compound 1 µM, first compound 0.0949 µM
[41] = second compound 1 µM, first compound 0.3 µM
[42] = second compound 1 µM, first compound 0.949 µM
[43] = second compound 1 µM, first compound 3 µM
[44] = second compound 3.16 µM, first compound 0.00949 µM
[45] = second compound 3.16 µM, first compound 0.03 µM
[46] = second compound 3.16 µM, first compound 0.0949 µM
[47] = second compound 3.16 µM, first compound 0.3 µM
[48] = second compound 3.16 µM, first compound 0.949 µM
[49] = second compound 3.16 µM, first compound 3 µM
[50] = second compound 10 µM, first compound 0.00949 µM
[51] = second compound 10 µM, first compound 0.03 µM
[52] = second compound 10 µM, first compound 0.0949 µM
[53] = second compound 10 µM, first compound 0.3 µM
[54] = second compound 10 µM, first compound 0.949 µM
[55] = second compound 10 µM, first compound 3 µM
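Also: spheroids exposed to agents for seven days before luminescence viability reading.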
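For viability, T/C in this document: 100% = DMSO vehicle control viability.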

SMILES: COc1ccc([C@@H](O)c2cc(-c3ncnc4cc(N5CCOCC5)ccc34)c(F)cc2Cl)nn1 + NC1CCC(NC2CC2c2ccccc2)CC1
- pIC50 [1]: 5.98
- pIC50 [2]: 5.93
- pIC50 [3]: 5.95
- pIC50 [4]: 5.93
- pIC50 [5]: 6.29
- viability, T/C [6]: 94.5%
- viability, T/C [7]: 114%
- viability, T/C [8]: 89.8%
- viability, T/C [9]: 49%
- viability, T/C (second compound 0.1 µM, first compound 3.16 µM): 30.2%
- viability, T/C (second compound 0.1 µM, first compound 10 µM): 14.2%
- viability, T/C [10]: 112%
- viability, T/C [11]: 87.4%
- viability, T/C [12]: 69.6%
- viability, T/C [13]: 59.8%
- viability, T/C (second compound 0.316 µM, first compound 3.16 µM): 30.8%
- viability, T/C (second compound 0.316 µM, first compound 10 µM): 13.9%
- viability, T/C [14]: 79.7%
- viability, T/C [15]: 98.3%
- viability, T/C [16]: 79.2%
- viability, T/C [17]: 50.4%
- viability, T/C (second compound 1 µM, first compound 3.16 µM): 28.4%
- viability, T/C (second compound 1 µM, first compound 10 µM): 13.4%
- viability, T/C [18]: 77.7%
- viability, T/C [19]: 102%
- viability, T/C [20]: 77.9%
- viability, T/C [21]: 55%
- viability, T/C (second compound 3.16 µM, first compound 3.16 µM): 23.9%
- viability, T/C (second compound 3.16 µM, first compound 10 µM): 14.7%
- viability, T/C [22]: 71.3%
- viability, T/C [23]: 74.8%
- viability, T/C [24]: 56.7%
- viability, T/C [25]: 37.7%
- viability, T/C (second compound 10 µM, first compound 3.16 µM): 22.9%
- viability, T/C (second compound 10 µM, first compound 10 µM): 12.1%

SMILES: COc1cc(C2c3cc4c(cc3C(OC3OC5COC(C)OC5C(O)C3O)C3COC(=O)C23)OCO4)cc(OC)c1O (configuration not stated) + NC1CC1c1ccc(-c2cccc(O)c2)cc1
- pIC50 [1]: 6.58
- pIC50 [2]: 6.70
- pIC50 [3]: 6.62
- pIC50 [4]: 6.56
- pIC50 [5]: 6.50
- viability, T/C [26]: 96.9%
- viability, T/C [27]: 76.4%
- viability, T/C [28]: 62.4%
- viability, T/C [29]: 47.8%
- viability, T/C [30]: 40.5%
- viability, T/C [31]: 38.2%
- viability, T/C [32]: 83.1%
- viability, T/C [33]: 88.7%
- viability, T/C [34]: 63.4%
- viability, T/C [35]: 44.2%
- viability, T/C [36]: 39.9%
- viability, T/C [37]: 34.5%
- viability, T/C [38]: 74.7%
- viability, T/C [39]: 77.5%
- viability, T/C [40]: 60.5%
- viability, T/C [41]: 45.6%
- viability, T/C [42]: 40.8%
- viability, T/C [43]: 30.2%
- viability, T/C [44]: 73.5%
- viability, T/C [45]: 82.1%
- viability, T/C [46]: 66%
- viability, T/C [47]: 47.9%
- viability, T/C [48]: 41.5%
- viability, T/C [49]: 32.8%
- viability, T/C [50]: 90.7%
- viability, T/C [51]: 84.9%
- viability, T/C [52]: 62.8%
- viability, T/C [53]: 53.6%
- viability, T/C [54]: 41.3%
- viability, T/C [55]: 42.8%

SMILES: O=C(C=Cn1cnc(-c2cc(C(F)(F)F)cc(C(F)(F)F)c2)n1)NNc1cnccn1 + NC1CCC(NC2CC2c2ccccc2)CC1
- pIC50 [1]: 7.53
- pIC50 [2]: 7.33
- pIC50 [3]: 7.50
- pIC50 [4]: 7.45
- pIC50 [5]: 7.54
- viability, T/C (second compound 0.1 µM, first compound 0.00316 µM): 72.7%
- viability, T/C (second compound 0.1 µM, first compound 0.01 µM): 62.3%
- viability, T/C [6]: 49.8%
- viability, T/C [7]: 36.2%
- viability, T/C [8]: 30.7%
- viability, T/C [9]: 23.9%
- viability, T/C (second compound 0.316 µM, first compound 0.00316 µM): 75%
- viability, T/C (second compound 0.316 µM, first compound 0.01 µM): 69.8%
- viability, T/C [10]: 57.9%
- viability, T/C [11]: 34.6%
- viability, T/C [12]: 34%
- viability, T/C [13]: 21%
- viability, T/C (second compound 1 µM, first compound 0.00316 µM): 67%
- viability, T/C (second compound 1 µM, first compound 0.01 µM): 65.1%
- viability, T/C [14]: 49.8%
- viability, T/C [15]: 31.3%
- viability, T/C [16]: 30.3%
- viability, T/C [17]: 24.3%
- viability, T/C (second compound 3.16 µM, first compound 0.00316 µM): 64.9%
- viability, T/C (second compound 3.16 µM, first compound 0.01 µM): 61.2%
- viability, T/C [18]: 53%
- viability, T/C [19]: 31.8%
- viability, T/C [20]: 30.3%
- viability, T/C [21]: 20.5%
- viability, T/C (second compound 10 µM, first compound 0.00316 µM): 72.7%
- viability, T/C (second compound 10 µM, first compound 0.01 µM): 70.5%
- viability, T/C [22]: 47.2%
- viability, T/C [23]: 31.5%
- viability, T/C [24]: 30.8%
- viability, T/C [25]: 21.6%

SMILES: NS(=O)(=O)OCC1CC(n2ccc3c(NC4CCc5ccccc54)ncnc32)CC1O (configuration not stated) + NC1CC1c1ccc(-c2cccc(O)c2)cc1
- pIC50 [1]: 6.36
- pIC50 [2]: 6.24
- pIC50 [3]: 6.32
- pIC50 [4]: 6.38
- pIC50 [5]: 6.29
- viability, T/C [26]: 124%
- viability, T/C [27]: 155%
- viability, T/C [28]: 154%
- viability, T/C [29]: 58.9%
- viability, T/C [30]: 36.9%
- viability, T/C [31]: 27%
- viability, T/C [32]: 128%
- viability, T/C [33]: 156%
- viability, T/C [34]: 135%
- viability, T/C [35]: 71.1%
- viability, T/C [36]: 37.5%
- viability, T/C [37]: 25.4%
- viability, T/C [38]: 114%
- viability, T/C [39]: 155%
- viability, T/C [40]: 146%
- viability, T/C [41]: 62.5%
- viability, T/C [42]: 36.6%
- viability, T/C [43]: 26.9%
- viability, T/C [44]: 110%
- viability, T/C [45]: 148%
- viability, T/C [46]: 138%
- viability, T/C [47]: 55.4%
- viability, T/C [48]: 43.1%
- viability, T/C [49]: 30.8%
- viability, T/C [50]: 155%
- viability, T/C [51]: 151%
- viability, T/C [52]: 114%
- viability, T/C [53]: 61.1%
- viability, T/C [54]: 40.8%
- viability, T/C [55]: 23%

SMILES: NC1CC1c1ccc(-c2cccc(O)c2)cc1 (configuration not stated)
- viability, T/C (compound 0.1 µM): 108%
- pIC50 (compound alone, run of 02/21/2022): < 5.00
